Data on eleven compounds can be found in ChEMBL document CHEMBL1799989 (Bioorg Med Chem Lett, 2011).

Broadly, the inhibition in vivo is the share of the control response that was lost under treatment. As a reminder, the IC50 is the concentration at which inhibition is half-maximal. Broadly, the bioavailability is dose-corrected exposure relative to a reference, in per cent. One may read the solubility as the dissolved amount per volume that the medium holds. The half-life is how long it takes for the measured level to halve. The Papp A→B is how fast a substance crosses the layer from the apical side.

Data set [1] deals with Rattus norvegicus. The experiment in a line: Antiinflammatory activity in fasted Lewis rat assessed as inhibition of LPS-induced TNFalpha production at 5 mg/kg, po administered 4 hrs prior LPS challenge measured after 90 mins by ELISA. It is filed as functional. The settings on record: for inhibition in vivo at 5 mg/kg: Rattus norvegicus, Lewis, po. In general terms: In an ELISA, binding on a coated surface is turned into a signal by an enzyme label.

Data set [2] can be described thus: (§1) Metabolic stability in rat liver microsomes assessed as compound remaining at 2 uM after 45 mins by LC/MS analysis in presence of NADPH. It is filed as ADME, Microsome. The settings on record: liver microsomes, read-out: Stability. On the technique in general: Microsomes from liver hold many membrane-bound enzymes, among them those of drug oxidation.
Data set [3] relates to Rattus norvegicus. The experiment in a line: Antiarthritic activity in Lewis rat assessed as inhibition of streptococcal cell wall-induced paw swelling at 60 mg/kg/day, po administered on day 10 of streptococcal cell wall challenge continued until day 21 by plethysmometer. It is filed as functional.
Data set [4] in a line: (§2) Metabolic stability in human liver microsomes assessed as compound remaining at 2 uM after 45 mins by LC/MS analysis in presence of NADPH. It is filed as ADME, Microsome. To be noted: liver microsomes, read-out: Stability.
Data set [5] has as its target Mitogen-activated protein kinase 14 (Homo sapiens, UniProt Q16539). The experiment in a line: Inhibition of p38alpha assessed as phosphorylation FITC-labeled Hsp27 after 60 mins by fluorescence based cascade assay.
Data set [6] relates to PBMC. The experiment in a line: Antiinflammatory activity in human PBMC assessed as inhibition of LPS-induced TNFalpha release pretreated for 1 hr before LPS treatment measured after 18 hrs. It is filed as functional, cell-based.
A short description of data set [7]: Oral bioavailability in Beagle dog administered as solution. In kind it is ADME, organism-based, Canis lupus familiaris. The settings on record: in vivo.
Data set [8] can be described thus: Solubility of the compound in phosphate buffer at pH 7. It is filed as physicochemical.
Data set [9] in a line: Half life in cynomolgus monkey administered as crystalline form. In kind it is ADME, organism-based, Macaca fascicularis. To be noted: in vivo.
A short description of data set [10]: Apparent permeability across apical to basolateral side in human Caco2 cells at 100 uM. It is filed as ADME, cell-based. The settings on record: Caco-2. For orientation: Passage across Caco-2 layers is used to estimate intestinal permeability.
Data set [11] relates to Liver microsomes. The description is as §1. In kind it is ADME, Microsome. To be noted: microsomes, 0.75 h, 2 µM.
Data set [12] can be described thus: Half life in Sprague-Dawley rat administered as crystalline form. It is filed as ADME, organism-based. To be noted: in vivo.
In data set [13] the test system is Liver microsomes. The description is as §2. To be noted: microsomes, 0.75 h, 2 µM. It is filed as ADME, Microsome.
Data set [14] is described as follows: Apparent permeability across apical to basolateral side in human Caco2 cells at 1 uM. In kind it is ADME, cell-based. The settings on record: Caco-2.
Data set [15] is described as follows: Oral bioavailability in cynomolgus monkey administered as crystalline form. In kind it is ADME, organism-based, Macaca fascicularis. The settings on record: in vivo.
Data set [16] in a line: Oral bioavailability in Sprague-Dawley rat at 15 mg/kg administered as solution. In kind it is ADME, organism-based. The settings on record: in vivo.
Data set [17] can be described thus: Half life in Beagle dog administered as crystalline form. The settings on record: in vivo. In kind it is ADME, organism-based, Canis lupus familiaris.
Data set [18] concerns Rattus norvegicus. The experiment in a line: Antiarthritic activity in Lewis rat assessed as inhibition of streptococcal cell wall-induced paw swelling at 2 mg/kg/day, po administered on day 10 of streptococcal cell wall challenge continued until day 21 by plethysmometer. It is filed as functional.
Data set [19] in a line: Oral bioavailability in Sprague-Dawley rat administered as crystalline form. To be noted: in vivo. It is filed as ADME, organism-based.
Data set [20] in a line: Oral bioavailability in cynomolgus monkey administered as solution. It is filed as ADME, organism-based, Macaca fascicularis. To be noted: in vivo.
Data set [21] can be described thus: Oral bioavailability in Sprague-Dawley rat at 2 mg/kg administered as solution. It is filed as ADME, organism-based. The settings on record: in vivo.
Data set [22] relates to Rattus norvegicus. Nature of the data set: Antiarthritic activity in Lewis rat assessed as inhibition of streptococcal cell wall-induced paw swelling at 30 mg/kg/day, po administered on day 10 of streptococcal cell wall challenge continued until day 21 by plethysmometer. In kind it is functional.
The subject of data set [23] is Rattus norvegicus. Nature of the data set: Antiarthritic activity in Lewis rat assessed as inhibition of streptococcal cell wall-induced paw swelling at 10 mg/kg/day, po administered on day 10 of streptococcal cell wall challenge continued until day 21 by plethysmometer. It is filed as functional.

Molecules are shown by their SMILES. “And” between values parts separate entries of the source, which are not always exact repeats. Equal entries are not always repeated.

Sequence of Mitogen-activated protein kinase 14 (Q16539 whole entry): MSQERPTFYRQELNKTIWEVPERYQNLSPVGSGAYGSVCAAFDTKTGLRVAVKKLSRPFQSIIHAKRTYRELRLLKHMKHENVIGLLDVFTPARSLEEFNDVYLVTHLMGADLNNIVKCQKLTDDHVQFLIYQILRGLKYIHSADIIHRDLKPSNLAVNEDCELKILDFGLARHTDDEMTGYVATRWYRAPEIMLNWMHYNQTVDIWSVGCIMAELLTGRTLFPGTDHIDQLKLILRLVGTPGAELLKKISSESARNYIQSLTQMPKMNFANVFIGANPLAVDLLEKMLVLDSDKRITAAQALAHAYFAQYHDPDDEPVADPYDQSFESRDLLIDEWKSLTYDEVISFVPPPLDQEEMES

On to `Cc1ccc(C(=O)N(C)C)cc1-n1c(C)cc(OCc2ccc(F)cc2F)c(Br)c1=O`, for which the inhibition in vivo at 5 mg/kg in data set [1] turned out to be 96%. Also, the remaining at 0.75 h, 2 µM is 71% in data set [2] and 75% in [4]. The inhibition in vivo at 60 mg/kg/day in data set [3] came out at 74%. Also, the IC50 turned out to be 9.5 nM in data set [5] and 28.5 nM in [6] (Homo sapiens, PBMC).

On to `CNC(=O)c1ccc(CO)c(-n2c(C)cc(OCc3ccc(F)cc3F)c(Br)c2=O)c1`, for which, in data set [5], the IC50 was 325 nM.

As to `CNC(=O)c1ccc(C)c(-n2c(CO)cc(OCc3ccc(F)cc3F)c(Br)c2=O)c1`, the inhibition in vivo at 5 mg/kg in data set [1] turned out to be 1%. Also, the IC50 in [5] turned out to be 4 nM; in [6] (Homo sapiens, PBMC), 16 nM.

In the case of `CNC(=O)c1ccc(OC)c(-n2c(C)cc(OCc3ccc(F)cc3F)c(Br)c2=O)c1`, in data set [1], the inhibition in vivo at 5 mg/kg was found to be 20%. The half-inhibitory concentration (IC50) turned out to be 21 nM in data set [5] and 107 nM in [6] (Homo sapiens, PBMC).

With `CNC(=O)c1ccc(C(=O)O)c(-n2c(C)cc(OCc3ccc(F)cc3F)c(Br)c2=O)c1`, the IC50 in data set [5] was > 10000 nM; in [6] (Homo sapiens, PBMC) it was > 25000 nM.

On to `CNC(=O)c1cccc(-n2c(C)cc(OCc3ccc(F)cc3F)c(Br)c2=O)c1C`, for which the inhibition in vivo at 5 mg/kg in [1] came to 61%. For the same compound, the remaining at 0.75 h, 2 µM in data set [2] is 91%; in [4], 89%. Further, the IC50 in data set [5] was 48.5 nM; in data set [6] (Homo sapiens, PBMC), 193 nM.

On to `CNC(=O)c1ccc(-n2c(C)cc(OCc3ccc(F)cc3F)c(Br)c2=O)c(C)c1`, for which, in data set [1], the inhibition in vivo at 5 mg/kg was 54%. The remaining at 0.75 h, 2 µM in [2] amounted to 86%; in [4] it was 93%. Also, the IC50 in [5] was 34 nM; in data set [6] (Homo sapiens, PBMC), 156 nM.

For `CNC(=O)c1ccc(F)c(-n2c(C)cc(OCc3ccc(F)cc3F)c(Br)c2=O)c1`, in [1], the inhibition in vivo at 5 mg/kg was determined as 83%. In addition, the IC50 was determined as 8.5 nM in data set [5] and 46 nM in data set [6] (Homo sapiens, PBMC).

As for `CNC(=O)c1ccc(C)c(-n2c(C)cc(OCc3ccc(F)cc3F)c(Br)c2=O)c1` [PH-797804], the bioavailability in [7] is 59.6%; in data set [15], 23.2%; in data set [16], 80.4%; in data set [19], 35.7%; in data set [20] it was 36.2%; in [21] it was > 100%. Also, in data set [8], the solubility is < 5 µg/mL. Further, the half-life in data set [9] is 3.93 h; in data set [12], 2.6 h; in [17] it was 11.4 h. For the same compound, the “inhibition (INH)” value in [1] (5 mg/kg) is 95% and 38%. For the same compound, the Papp A→B at 100 µM in [10] was 25 ×10⁻⁶ cm/s. Moreover, the Stability is 100% in [11]; 98% and 92% in data set [13]. Also, the values for the remaining at 0.75 h, 2 µM in data set [2] and in [4] were 95% and 91%, respectively. Besides, in data set [14], the apparent permeability from apical to basolateral (Papp A→B) at 1 µM was found to be 10 ×10⁻⁶ cm/s. Also, the inhibition in vivo at 2 mg/kg/day in data set [18] stood at 80%. For the same compound, the IC50 in data set [6] (pbmc) was 15 nM and 3.4 nM.

As for `CNC(=O)c1ccc(Cl)c(-n2c(C)cc(OCc3ccc(F)cc3F)c(Br)c2=O)c1`, the inhibition in vivo at 30 mg/kg/day in data set [22] is 90%. Also, the inhibition in vivo at 5 mg/kg in data set [1] was 89%. In addition, the half-inhibitory concentration (IC50) in data set [5] came out at 3 nM; in data set [6] (Homo sapiens, PBMC), 18 nM.

Turning to `Cc1ccc(C(N)=O)cc1-n1c(C)cc(OCc2ccc(F)cc2F)c(Br)c1=O`, the inhibition in vivo at 10 mg/kg/day in [23] stood at 87%. Besides, the inhibition in vivo at 5 mg/kg in data set [1] came out at 98%. In addition, the figures for the remaining at 0.75 h, 2 µM in data set [2] and in data set [4] were 100% and 84%, respectively. In addition, the IC50 in data set [5] amounted to 2 nM; in data set [6] (Homo sapiens, PBMC) it was 2.5 nM.
